Measured values published in US11046671B2, “Dihydropyrimidinyl benzazepine carboxamide compounds” (Hoffmann-La Roche Inc., priority 2016, dated 2021).

Legend:
[1] = target: human TLR7 (Homo sapiens (Human), UniProt Q9NYK1); experiment: HEK-Blue human TLR7 cells, NF-κB SEAP reporter assay; type: cell-based; conditions: 20 hours stimulation
Source text: (§1) For TLR8 and TLR7 activity testing, HEK-Blue human TLR8 or TLR7 cells (Invivogen, San Diego, Calif., USA) are used, respectively. These cells are designed for studying the stimulation of human TLR8 or TLR7 by monitoring the activation of NF-κB. A SEAP (secreted embryonic alkaline phosphatase) reporter gene is placed under the control of the IFN-b minimal promoter fused to five NF-κB and AP-1-binding sites. Therefore the reporter expression is regulated by the NF-κB promoter upon stimulation of human TLR8 or TLR7 for 20 hours. The cell culture supernatant SEAP reporter activity was determined using Quanti Blue kit (Invivogen, San Diego, Ca, USA) at a wavelength of 640 nm, a detection medium that turns purple/blue in the presence of alkaline phosphatase. EC50 values were determined using Activity Base analysis (ID Business Solution, Limited).

[2] = target: human TLR8 (Homo sapiens (Human), UniProt Q9NR97); experiment: HEK-Blue human TLR8 cells, NF-κB SEAP reporter assay; type: cell-based; conditions: 20 hours stimulation
human TLR8, sequence (Q9NR97 27-1041): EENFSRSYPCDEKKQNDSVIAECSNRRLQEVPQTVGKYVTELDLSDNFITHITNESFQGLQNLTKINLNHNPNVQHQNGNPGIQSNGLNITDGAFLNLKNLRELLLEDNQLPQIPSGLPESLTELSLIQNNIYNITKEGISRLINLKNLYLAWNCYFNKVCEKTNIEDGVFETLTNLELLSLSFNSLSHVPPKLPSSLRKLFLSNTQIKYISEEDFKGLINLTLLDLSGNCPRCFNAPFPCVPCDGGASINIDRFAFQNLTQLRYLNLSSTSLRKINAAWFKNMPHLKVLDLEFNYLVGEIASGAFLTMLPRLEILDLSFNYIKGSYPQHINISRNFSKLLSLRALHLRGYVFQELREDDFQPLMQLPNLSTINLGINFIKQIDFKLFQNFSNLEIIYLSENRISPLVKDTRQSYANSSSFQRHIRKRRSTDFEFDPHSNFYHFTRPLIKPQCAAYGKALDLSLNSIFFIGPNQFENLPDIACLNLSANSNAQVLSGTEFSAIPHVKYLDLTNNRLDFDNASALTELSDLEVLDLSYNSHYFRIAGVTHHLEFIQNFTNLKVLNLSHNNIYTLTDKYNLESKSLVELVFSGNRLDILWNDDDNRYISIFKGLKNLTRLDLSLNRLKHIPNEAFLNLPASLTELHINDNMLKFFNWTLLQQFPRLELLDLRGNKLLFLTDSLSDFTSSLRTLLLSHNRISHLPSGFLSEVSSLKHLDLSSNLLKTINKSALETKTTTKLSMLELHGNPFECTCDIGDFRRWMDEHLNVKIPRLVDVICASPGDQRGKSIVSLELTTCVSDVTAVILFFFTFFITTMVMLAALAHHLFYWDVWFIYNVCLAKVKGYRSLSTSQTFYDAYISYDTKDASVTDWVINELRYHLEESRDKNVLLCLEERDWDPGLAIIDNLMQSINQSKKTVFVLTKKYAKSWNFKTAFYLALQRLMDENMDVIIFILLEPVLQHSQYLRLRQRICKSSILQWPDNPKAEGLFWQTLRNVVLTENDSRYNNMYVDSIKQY
Source text: as §1

human TLR7, sequence (Q9NYK1 27-1049): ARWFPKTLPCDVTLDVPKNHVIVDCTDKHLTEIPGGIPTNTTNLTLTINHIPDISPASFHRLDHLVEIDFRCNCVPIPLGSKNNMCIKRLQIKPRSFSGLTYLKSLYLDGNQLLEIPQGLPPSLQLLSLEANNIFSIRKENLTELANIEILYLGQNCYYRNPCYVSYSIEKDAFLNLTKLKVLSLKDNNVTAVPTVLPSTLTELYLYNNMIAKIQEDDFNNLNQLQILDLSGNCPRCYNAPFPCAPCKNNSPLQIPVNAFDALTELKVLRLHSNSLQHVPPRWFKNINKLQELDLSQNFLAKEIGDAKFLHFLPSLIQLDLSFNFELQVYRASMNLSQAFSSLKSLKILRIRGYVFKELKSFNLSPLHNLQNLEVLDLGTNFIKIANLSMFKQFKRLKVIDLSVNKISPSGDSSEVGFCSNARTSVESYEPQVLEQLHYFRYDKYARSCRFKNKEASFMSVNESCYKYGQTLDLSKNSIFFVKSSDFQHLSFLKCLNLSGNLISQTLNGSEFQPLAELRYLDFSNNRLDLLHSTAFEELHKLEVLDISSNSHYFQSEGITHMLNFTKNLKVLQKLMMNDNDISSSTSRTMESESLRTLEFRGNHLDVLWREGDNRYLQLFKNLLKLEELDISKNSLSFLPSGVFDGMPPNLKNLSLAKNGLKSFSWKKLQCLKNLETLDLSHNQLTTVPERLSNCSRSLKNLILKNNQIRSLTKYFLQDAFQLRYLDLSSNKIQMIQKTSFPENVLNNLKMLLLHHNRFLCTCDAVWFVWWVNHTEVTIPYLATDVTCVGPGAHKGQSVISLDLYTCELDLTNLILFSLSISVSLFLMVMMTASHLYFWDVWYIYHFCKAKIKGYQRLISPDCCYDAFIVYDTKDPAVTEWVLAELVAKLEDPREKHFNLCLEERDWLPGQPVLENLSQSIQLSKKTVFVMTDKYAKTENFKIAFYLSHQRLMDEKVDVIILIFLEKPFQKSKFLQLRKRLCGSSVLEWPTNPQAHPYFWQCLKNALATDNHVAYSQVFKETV

EC50 [1]	EC50 [2]	SMILES
> 100000 nM	2 nM	CCCN(CCC)C(=O)C1=Cc2ccc(C3=NCc4cc(OC)ccc4N3)cc2N=C(N)C1 [Example 11, 2-Amino-8-(6-methoxy-1,4-dihydroquinazolin-2-yl)-N,N-dipropyl-3H-1-benzazepine-4-carboxamide]
> 100000 nM	11 nM	CCCN(CC(C)C)C(=O)C1=Cc2ccc(C3=NCc4ccccc4N3)cc2N=C(N)C1 [Example 4, 2-Amino-8-(1,4-dihydroquinazolin-2-yl)-N-isobutyl-N-propyl-3H-1-benzazepine-4-carboxamide]
> 100000 nM	7 nM	CCCN(CCC)C(=O)C1=Cc2ccc(C3=NC(C)(C)c4ccccc4N3)cc2N=C(N)C1 [Example 7, 2-Amino-8-(4,4-dimethyl-1H-quinazolin-2-yl)-N,N-dipropyl-3H-1-benzazepine-4-carboxamide]
> 100000 nM	6 nM	CCCN(CCC)C(=O)C1=Cc2ccc(C3=NCc4cc(Cl)ccc4N3)cc2N=C(N)C1 [Example 8, 2-Amino-8-(6-chloro-1,4-dihydroquinazolin-2-yl)-N,N-dipropyl-3H-1-benzazepine-4-carboxamide]
> 100000 nM	3 nM	CCCN(CCC)C(=O)C1=Cc2ccc(C3=NCc4ccncc4N3)cc2N=C(N)C1 [Example 2, 2-Amino-8-(1,4-dihydropyrido[3,4-d]pyrimidin-2-yl)-N,N-dipropyl-3H-1-benzazepine-4-carboxamide]
> 100000 nM	1 nM	CCCN(CCC)C(=O)C1=Cc2ccc(C3=NCc4c(C)cccc4N3)cc2N=C(N)C1 [Example 9, 2-Amino-8-(5-methyl-1,4-dihydroquinazolin-2-yl)-N,N-dipropyl-3H-1-benzazepine-4-carboxamide]
–	11 nM	CCCN(CCC)C(=O)C1=Cc2ccc(C3=NCc4c(Cl)cccc4N3)cc2N=C(N)C1 [Example 5, 2-Amino-8-(5-chloro-1,4-dihydroquinazolin-2-yl)-N,N-dipropyl-3H-1-benzazepine-4-carboxamide]
> 100000 nM	3 nM	CCCN(CCC)C(=O)C1=Cc2ccc(C3=NCc4c(F)cccc4N3)cc2N=C(N)C1 [Example 10, 2-Amino-8-(5-fluoro-1,4-dihydroquinazolin-2-yl)-N,N-dipropyl-3H-1-benzazepine-4-carboxamide]
> 100000 nM	3 nM	CCCN(CCC)C(=O)C1=Cc2ccc(C3=NCc4ccccc4N3)cc2N=C(N)C1 [Example 1, 2-Amino-8-(1,4-dihydroquinazolin-2-yl)-N,N-dipropyl-3H-1-benzazepine-4-carboxamide]
> 100000 nM	9 nM	CCCN(CCC)C(=O)C1=Cc2ccc(C3=NCc4ccc(Cl)cc4N3)cc2N=C(N)C1 [Example 6, 2-Amino-8-(7-chloro-1,4-dihydroquinazolin-2-yl)-N,N-dipropyl-3H-1-benzazepine-4-carboxamide]
> 100000 nM	6 nM	CCCN(CC1CC1)C(=O)C1=Cc2ccc(C3=NCc4ccccc4N3)cc2N=C(N)C1 [Example 3, 2-Amino-N-(cyclopropylmethyl)-8-(1,4-dihydroquinazolin-2-yl)-N-propyl-3H-1-benzazepine-4-carboxamide]
